Reference: patent US10336762B2 (priority 2017, dated 2019)
pEC50, pIC50: −log10 of the molar value. Like-named read-outs stand apart in the source and are kept apart here.

Key:
TNFα = experiment: cells; format: cell-based, human; conditions: Homo sapiens, Monocyte, LPS-stimulated human monocytes, read-out: EC50 TNF
IRAK4 enzyme = IRAK4 enzyme (Homo sapiens (Human), UniProt Q9NWZ3); experiment: biochemical; format: biochemical; conditions: IRAK4 enzyme, 500 μM ATP
Chain of IRAK4 enzyme (Q9NWZ3 whole entry): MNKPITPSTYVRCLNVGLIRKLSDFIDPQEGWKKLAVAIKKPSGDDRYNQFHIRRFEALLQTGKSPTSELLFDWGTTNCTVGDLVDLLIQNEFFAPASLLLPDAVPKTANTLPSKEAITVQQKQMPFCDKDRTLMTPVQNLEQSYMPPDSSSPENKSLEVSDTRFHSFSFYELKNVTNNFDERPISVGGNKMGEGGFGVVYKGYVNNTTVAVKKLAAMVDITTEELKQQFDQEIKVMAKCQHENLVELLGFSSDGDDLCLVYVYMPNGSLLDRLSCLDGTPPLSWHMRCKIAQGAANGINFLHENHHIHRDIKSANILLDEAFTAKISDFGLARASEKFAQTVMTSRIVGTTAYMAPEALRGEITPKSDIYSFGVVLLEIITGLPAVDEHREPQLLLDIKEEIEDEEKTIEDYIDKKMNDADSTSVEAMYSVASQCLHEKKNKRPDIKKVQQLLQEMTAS

Structure (SMILES)	pEC50 (TNFα; TNFα content)	pIC50 (IRAK4 enzyme; TR-FRET)	pIC50 (IRAK4 enzyme; TR-FRET (HTRF))	pEC50 (TNFα; TNFα by TR-FRET)
CC(C)(O)[C@H](F)CNC(=O)c1cnc(-c2ccc3cc(C#N)cnn23)cc1Nc1cccc(-c2cnc[nH]2)c1 [Example 219, (R)-4-((3-(1H-imidazol-5-yl)phenyl)amino)-6-(3-cyanopyrrolo[1,2-b]pyridazin-7-yl)-N-(2-fluoro-3-hydroxy-3-methylbutyl)nicotinamide]	6.68	9.00	–	–
N#Cc1cnn2c(-c3cc(N[C@H]4CCC[C@@H](O)C4)c(C(=O)NC4C[C@H]4F)cn3)ccc2c1 (stereo partly drawn) [Example 426, 6-(3-cyanopyrrolo[1,2-b]pyridazin-7-yl)-N-((2R)-2-fluorocyclopropyl)-4-(((1S,3R)-3-hydroxycyclo-hexyl)amino)nicotinamide]	6.23	–	8.30	–
CNC(=O)c1cnc(-c2ccc3cc(C#N)cnn23)cc1N[C@@H]1CC[C@H](C(=O)NC)C1 [Example 469, 6-(3-cyanopyrrolo[1,2-b]pyridazin-7-yl)-N-methyl-4-(((1R,3S)-3-(methylcarbamoyl)cyclo-pentyl)amino)nicotinamide]	5.96	–	7.39	–
CC(C)(O)[C@H](F)CNC(=O)c1cnc(-c2ccc3cc(C#N)cnn23)cc1NC1CCS(=O)(=O)C1 (stereo partly drawn) [Example 76, 6-(3-cyanopyrrolo[1,2-b]pyridazin-7-yl)-4-((1,1-dioxidotetrahydrothiophen-3-yl)amino)-N-((R)-2-fluoro-3-hydroxy-3-methylbutyl)nicotinamide]	6.46	9.00	–	–
CNC(=O)c1cnc(-c2ccc3cc(C#N)cnn23)cc1NC12CC(C1)C2 [Example 489, 4-(bicyclo[1.1.1]pentan-1-ylamino)-6-(3-cyano-pyrrolo[1,2-b]pyridazin-7-yl)-N-methylnicotinamide]	6.92	–	8.70	–
CC(C)(O)[C@H](F)CNC(=O)c1cnc(-c2ccc3cc(C#N)cnn23)cc1N[C@H]1C[C@H](CN)C1 [Example 692, 4-(((1r,3R)-3-(amino-methyl)cyclobutyl)amino)-6-(3-cyanopyrrolo[1,2-b]pyridazin-7-yl)-N-((R)-2-fluoro-3-hydroxy-3-methylbutyl)nicotinamide]	6.50	–	9.00	–
COc1ccc(Nc2cc(-c3ccc4cc(C#N)cnn34)ncc2C(=O)NC[C@@H](F)C(C)(C)O)cn1 [Example 602, (R)-6-(3-cyanopyrrolo[1,2-b]pyridazin-7-yl)-N-(2-fluoro-3-hydroxy-3-methylbutyl)-4-((6-methoxy-pyridin-3-yl)amino) nicotinamide]	7.15	–	> 9.00	–
CC(C)(O)[C@H](F)CNC(=O)c1cnc(-c2ccc3cc(C#N)cnn23)cc1N[C@H]1C[C@H](COC(=O)N2CC(F)(F)C2)C1 [Example 738, ((1R,3r)-3-((2-(3-cyano-pyrrolo[1,2-b]pyridazin-7-yl)-5-(((R)-2-fluoro-3-hydroxy-3-methylbutyl)carbamoyl)pyridin-4-yl)amino)cyclobutyl) methyl 3,3-difluoro-azetidine-1-carboxylate]	7.54	–	> 9.00	–
CC(=O)N[C@H]1CC[C@@H](Nc2cc(-c3ccc4cc(C#N)cnn34)ncc2C(=O)NC[C@@H](F)C(C)(C)O)C1 [Example 307, 4-(((1R,3S)-3-acetamidocyclopentyl)amino)-6-(3-cyano-pyrrolo[1,2-b]pyridazin-7-yl)-N-((R)-2-fluoro-3-hydroxy-3-methylbutyl) nicotinamide]	6.49	8.70	–	–
CC(C)(O)[C@H](F)CNC(=O)c1cnc(-c2ccc3cc(C#N)cnn23)cc1Nc1ccc2c(c1)OC(F)(F)O2 [Example 651, (R)-6-(3-cyanopyrrolo[1,2-b]pyridazin-7-yl)-4-((2,2-difluorobenzo[d][1,3]dioxol-5-yl)amino)-N-(2-fluoro-3-hydroxy-3-methylbutyl) nicotinamide]	6.73	–	8.30	–
COCc1ccc(Nc2cc(-c3ccc4cc(C#N)cnn34)ncc2C(=O)NC[C@@H](F)C(C)(C)O)cc1 [Example 648, (R)-6-(3-cyanopyrrolo[1,2-b]pyridazin-7-yl)-N-(2-fluoro-3-hydroxy-3-methylbutyl)-4-((4-(methoxymethyl)phenyl)amino)nicotinamide]	7.29	–	9.00	–
CC(C)Nc1cc(-c2ccc3cc(C#N)cnn23)ncc1C(=O)NCC(=O)C(C)(C)O [Example 332, 6-(3-cyanopyrrolo[1,2-b]pyridazin-7-yl)-N-(3-hydroxy-3-methyl-2-oxobutyl)-4-(isopropyl-amino)nicotinamide]	7.37	> 9.00	–	–
CC(C)(O)[C@H](F)CNC(=O)c1cnc(-c2ccc3cc(C#N)cnn23)cc1Nc1ccc(C(N)=O)nc1 [Example 601, (R)-5-((2-(3-cyano-pyrrolo[1,2-b]pyridazin-7-yl)-5-((2-fluoro-3-hydroxy-3-methylbutyl)carbamoyl)pyridin-4-yl)amino) picolinamide]	7.19	–	> 9.00	–
CC(C)(O)[C@H](F)CNC(=O)c1cnc(-c2ccc3cc(C#N)cnn23)cc1NC12CCC(C(=O)N3CC(F)C3)(CC1)CC2 [Example 400, (R)-6-(3-cyanopyrrolo[1,2-b]pyridazin-7-yl)-N-(2-fluoro-3-hydroxy-3-methylbutyl)-4-((4-(3-fluoroazetidine-1-carbonyl)bicyclo[2.2.2]octan-1-yl)amino) nicotinamide]	7.68	–	9.00	–
CC(C)(O)[C@H](F)CNC(=O)c1cnc(-c2ccc3cc(C#N)cnn23)cc1NC1CC(CNC(=O)C2CCC2)C1 (stereo partly drawn) [Example 927, 6-(3-cyanopyrrolo[1,2-b]pyridazin-7-yl)-4-(((1r,3R)-3-(cyclobutanecarboxamido-methyl)cyclobutyl)amino)-N-((R)-2-fluoro-3-hydroxy-3-methylbutyl)nicotinamide]	–	> 9.00	–	7.66
CCOc1cccc(Nc2cc(-c3ccc4cc(C#N)cnn34)ncc2C(=O)NC[C@@H](F)C(C)(C)O)c1 [Example 836, (R)-6-(3-cyanopyrrolo[1,2-b]pyridazin-7-yl)-4-((3-ethoxyphenyl)amino)-N-(2-fluoro-3-hydroxy-3-methylbutyl)nicotinamide]	–	8.70	–	7.37
CC(C)(O)[C@H](F)CNC(=O)c1cnc(-c2ccc3cc(C#N)cnn23)cc1NC1CC1CO (stereo partly drawn) [Example 303, 6-(3-cyanopyrrolo[1,2-b]pyridazin-7-yl)-N-((R)-2-fluoro-3-hydroxy-3-methylbutyl)-4-((2-(hydroxymethyl)cyclopropyl)amino)nicotinamide]	7.59	> 9.00	–	–
CNC(=O)c1ncc(Nc2cc(-c3ccc4cc(C#N)cnn34)ncc2C(=O)NC[C@@H](F)C(C)(C)O)cn1 [Example 674, (R)-5-((2-(3-cyano-pyrrolo[1,2-b]pyridazin-7-yl)-5-((2-fluoro-3-hydroxy-3-methylbutyl)carbamoyl)pyridin-4-yl)amino)-N-methyl-pyrimidine-2-carboxamide]	7.17	–	> 9.00	–
CC1(O)CCCC(Nc2cc(-c3ccc4cc(C#N)cnn34)ncc2C(=O)NC[C@@H](F)C(C)(C)O)C1 (single isomer, unassigned) [Example 528]	7.19	–	9.00	–
N#Cc1cnn2c(-c3cc(NC45CCC(O)(CC4)CC5)c(C(=O)NC[C@H]4C[C@@H](NC(=O)C5CC5)C4)cn3)ccc2c1 [Example 732, 6-(3-cyanopyrrolo[1,2-b]pyridazin-7-yl)-N-(((1s,3s)-3-(cyclopropane-carboxamido)cyclobutyl)methyl)-4-((4-hydroxy-bicyclo[2.2.2]octan-1-yl)amino)nicotinamide]	7.05	–	9.00	–
CC(C)Nc1cc(-c2ccc3cc(C#N)cnn23)ncc1C(=O)NCC1CCS(=O)(=O)CC1 [Example 121, 6-(3-cyanopyrrolo[1,2-b]pyridazin-7-yl)-N-((1,1-dioxidotetrahydro-2H-thiopyran-4-yl)methyl)-4-(isopropylamino) nicotinamide]	6.44	8.15	–	–
CC(C)(O)[C@H](F)CNC(=O)c1cnc(-c2ccc3cc(C#N)cnn23)cc1Nc1cnc(Cl)cn1 [Example 970, (R)-4-((5-chloropyrazin-2-yl)amino)-6-(3-cyano-pyrrolo[1,2-b]pyridazin-7-yl)-N-(2-fluoro-3-hydroxy-3-methylbutyl)nicotinamide]	–	> 9.00	–	7.24
Cn1cnc(-c2ccc(Nc3cc(-c4ccc5cc(C#N)cnn45)ncc3C(=O)NC[C@@H](F)C(C)(C)O)cc2)n1 [Example 179, (R)-6-(3-cyanopyrrolo[1,2-b]pyridazin-7-yl)-N-(2-fluoro-3-hydroxy-3-methylbutyl)-4-((4-(1-methyl-1H-1,2,4-triazol-3-yl)phenyl)amino) nicotinamide]	7.23	9.00	–	–
CNC(=O)CCNC(=O)c1cnc(-c2ccc3cc(C#N)cnn23)cc1NC12CCC(O)(CC1)CC2 [Example 803, 6-(3-cyanopyrrolo[1,2-b]pyridazin-7-yl)-4-((4-hydroxybicyclo[2.2.2]octan-1-yl)amino)-N-(3-(methylamino)-3-oxopropyl)nicotinamide]	–	9.00	–	6.49
CC(C)(O)[C@H](F)CNC(=O)c1cnc(-c2ccc3cc(C#N)cnn23)cc1Nc1ccc(C#N)nc1 [Example 603, (R)-4-((6-cyanopyridin-3-yl)amino)-6-(3-cyano-pyrrolo[1,2-b]pyridazin-7-yl)-N-(2-fluoro-3-hydroxy-3-methylbutyl)nicotinamide]	7.09	–	9.00	–
CC(C)(O)[C@H](F)CNC(=O)c1cnc(-c2ccc3cc(C#N)cnn23)cc1NC1CC2(C1)CN(CC(F)(F)F)C2 [Example 898, (R)-6-(3-cyanopyrrolo[1,2-b]pyridazin-7-yl)-N-(2-fluoro-3-hydroxy-3-methylbutyl)-4-((2-(2,2,2-trifluoroethyl)-2-aza-spiro[3.3]heptan-6-yl)amino)nicotinamide]	–	> 9.00	–	6.93
